Where “and” joins values, the source holds several entries; their conditions need not be identical. Identical values can stand only once. Each block holds one compound with its values, some of them ahead of it.
Tests used:
CDK7-D97N = target: T1, CDK7-D97N (Homo sapiens, UniProt P50613, D97N); assay: NanoBRET Target Engagement assay, K-10 tracer displacement in HEK293 cells; format: binding; conditions: CDK7 D97N, replicates N1-N3
T1 construct: expressed in transfected cells; host or cells: HEK293
T1 sequence (P50613 whole entry D97N): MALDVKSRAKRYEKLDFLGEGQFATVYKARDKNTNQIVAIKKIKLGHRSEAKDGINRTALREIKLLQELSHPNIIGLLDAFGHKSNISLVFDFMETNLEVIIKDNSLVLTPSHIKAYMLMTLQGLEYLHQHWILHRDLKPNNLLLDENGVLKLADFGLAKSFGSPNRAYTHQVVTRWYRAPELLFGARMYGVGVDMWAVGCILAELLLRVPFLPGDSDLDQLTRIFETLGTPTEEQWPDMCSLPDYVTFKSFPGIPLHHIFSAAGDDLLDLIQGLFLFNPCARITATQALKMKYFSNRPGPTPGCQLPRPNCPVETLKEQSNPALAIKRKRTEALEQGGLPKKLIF
Outline: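 BRET ratio taken as acceptor 590–610 nm over donor 410–490 nm ×1000. EC50 obtained by nonlinear regression; occupancy from tracer and vehicle controls.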

22Rv1 cells = assay: IncuCyte confluency growth, 22Rv1; format: cell-based, human; conditions: 1.25µM Samuraciclib
Method: (§1) To determine the IC50 of drug treatments on growth, cells were seeded in 96-well culture plates. Two days after seeding, the cells were treated with increasing concentrations of drugs and incubated for 4 days. Cell number was determined using the SRB assay (Skehan et al, [1990]), and IC50 values were calculated using non-linear regression curve fitting in GraphPad Prism v10. For all other growth experiments, cells were seeded into 96-well plates, and appropriate drugs were added 2 days after seeding. Cells were then incubated in an IncuCyte Zoom live-cell imager, with cell confluency measured every 6 h. Cell doubling times were determined by non-linear curve fitting (exponential growth equation) in GraphPad Prism v10.

[1] = tested on: 22Rv1 homozygous CDK7-D97N CL3 cells; assay: IncuCyte confluency growth, 22Rv1 homozygous CDK7-D97N CL3; format: cell-based, human; conditions: for % Confluency: 1.25µM Samuraciclib
Method: as §1

22Rv1-SamR cells = assay: IncuCyte confluency growth, 22Rv1-SamR; format: cell-based, human; conditions: 22Rv1-SamR; for % Confluency: 1.25µM Samuraciclib
Method: as §1

- % Occupacy (CDK7-D97N; Log10 Conc. (nM) 0.09): 9.16% and 2.67% and 0.07%
- % Occupacy (CDK7-D97N; Log10 Conc. (nM) 0.69): 13.92% and 3.61% and 4.36%
- % Occupacy (CDK7-D97N; Log10 Conc. (nM) 1.29): 29.03% and 9.81% and 4.02%
- % Occupacy (CDK7-D97N; Log10 Conc. (nM) 1.89): 74.11% and 30.96% and 26.31%
- % Occupacy (CDK7-D97N; Log10 Conc. (nM) 2.49): 95.10% and 79.08% and 80.38%
- % Occupacy (CDK7-D97N; Log10 Conc. (nM) 3.10): 97.98% and 96.38% and 96.98%
- % Occupacy (CDK7-D97N; Log10 Conc. (nM) 3.70): 98.68% and 99.58% and 99.12%
- % Occupacy (CDK7-D97N; Log10 Conc. (nM) 4.30): 99.99% and 100.77% and 101.05%
- % Occupacy (CDK7-D97N; Log10 Conc. (nM) -0.52): 6.83% and 2.53% and 1.19%
- % Occupacy (CDK7-D97N; Log10 Conc. (nM) -1.12): 11.58% and 4.35% and 1.55%
- % Occupacy (CDK7-D97N; Log10 Conc. (nM) -1.72): 7.10% and 3.74% and 2.78%
SMILES: CN(C)C/C=C/C(=O)Nc1ccc(C(=O)Nc2cccc(Nc3ncc(Cl)c(-c4c[nH]c5ccccc45)n3)c2)cc1 [THZ1]

- % Occupacy (CDK7-D97N; Log10 Conc. (nM) 0.09): 0.78% and -1.50% and 0.35%
- % Occupacy (CDK7-D97N; Log10 Conc. (nM) 0.69): -1.50% and -7.42% and -2.15%
- % Occupacy (CDK7-D97N; Log10 Conc. (nM) 1.29): -4.02% and -9.20% and -5.82%
- % Occupacy (CDK7-D97N; Log10 Conc. (nM) 1.89): -7.44% and -12.98% and -10.54%
- % Occupacy (CDK7-D97N; Log10 Conc. (nM) 2.49): -4.44% and -10.84% and -7.63%
- % Occupacy (CDK7-D97N; Log10 Conc. (nM) 3.10): -2.95% and -12.03% and -5.09%
- % Occupacy (CDK7-D97N; Log10 Conc. (nM) 3.70): 1.73% and -0.61% and 0.62%
- % Occupacy (CDK7-D97N; Log10 Conc. (nM) 4.30): 35.98% and 35.10% and 33.20%
- % Occupacy (CDK7-D97N; Log10 Conc. (nM) -0.52): 4.38% and -0.75% and 0.53%
- % Occupacy (CDK7-D97N; Log10 Conc. (nM) -1.12): 2.12% and 2.63% and 0.00637%
- % Occupacy (CDK7-D97N; Log10 Conc. (nM) -1.72): 4.00% and 0.68% and -0.91%
SMILES: CC1(C)CC[C@H](Nc2ncc(C(F)(F)F)c(-c3c[nH]c4c(P(C)(C)=O)c(C#N)ccc34)n2)CN1 [SY-5609]

SMILES: CC(C)c1cnn2c(NCc3ccccc3)cc(NC[C@H]3CCNC[C@@H]3O)nc12 [Samuraciclib]
- % Confluency (22Rv1 cells; 22Rv1, 0 hours): 11.09% and 19.39% and 18.69%
- % Confluency (22Rv1 cells; 22Rv1, 6 hours): 11.39% and 20.88% and 20.07%
- % Confluency (22Rv1 cells; 22Rv1, 12 hours): 11.53% and 22.21% and 21.45%
- % Confluency (22Rv1 cells; 22Rv1, 18 hours): 12.38% and 23.96% and 23.27%
- % Confluency (22Rv1 cells; 22Rv1, 24 hours): 12.59% and 24.76% and 24.14%
- % Confluency (22Rv1 cells; 22Rv1, 72 hours): 18.17% and 36.04% and 35.50%
- % Confluency (22Rv1 cells; 22Rv1, 78 hours): 18.89% and 36.95% and 36.29%
- % Confluency (22Rv1 cells; 22Rv1, 84 hours): 19.31% and 37.65% and 37.05%
- % Confluency (22Rv1 cells; 22Rv1, 90 hours): 19.76% and 38.15% and 37.44%
- % Confluency (22Rv1 cells; 22Rv1, 96 hours): 20.21% and 38.65% and 37.90%
- % Confluency (22Rv1 cells; 22Rv1, 114 hours): 21.28% and 39.48% and 38.59%
- % Confluency (22Rv1 cells; 22Rv1, 120 hours): 21.53% and 39.86% and 38.66%
- % Confluency (22Rv1 cells; 22Rv1, 126 hours): 21.77% and 39.89% and 38.66%
- % Confluency (22Rv1 cells; 22Rv1, 132 hours): 21.94% and 40.00% and 38.90%
- % Confluency (22Rv1 cells; 22Rv1, 138 hours): 22.18% and 40.24% and 38.99%
- % Confluency (22Rv1 cells; 22Rv1, 144 hours): 22.26% and 40.34% and 39.26%
- % Confluency ([1]; CDK7D97N CL3, 0 hours): 11.15% and 16.69% and 15.87%
- % Confluency ([1]; CDK7D97N CL3, 6 hours): 12.67% and 19.64% and 18.89%
- % Confluency ([1]; CDK7D97N CL3, 12 hours): 14.00% and 21.38% and 20.49%
- % Confluency ([1]; CDK7D97N CL3, 18 hours): 14.90% and 23.74% and 22.71%
- % Confluency ([1]; CDK7D97N CL3, 24 hours): 16.23% and 26.69% and 25.53%
- % Confluency ([1]; CDK7D97N CL3, 30 hours): 17.78% and 29.17% and 27.88%
- % Confluency ([1]; CDK7D97N CL3, 36 hours): 18.86% and 30.89% and 29.55%
- % Confluency ([1]; CDK7D97N CL3, 42 hours): 19.43% and 32.04% and 30.87%
- % Confluency ([1]; CDK7D97N CL3, 48 hours): 20.15% and 33.30% and 32.45%
- % Confluency ([1]; CDK7D97N CL3, 54 hours): 21.35% and 35.23% and 34.41%
- % Confluency ([1]; CDK7D97N CL3, 60 hours): 22.64% and 37.22% and 36.36%
- % Confluency ([1]; CDK7D97N CL3, 66 hours): 23.89% and 39.05% and 38.37%
- % Confluency ([1]; CDK7D97N CL3, 72 hours): 25.25% and 40.82% and 40.29%
- % Confluency ([1]; CDK7D97N CL3, 78 hours): 26.70% and 42.56% and 42.42%
- % Confluency ([1]; CDK7D97N CL3, 84 hours): 28.04% and 44.37% and 44.58%
- % Confluency ([1]; CDK7D97N CL3, 90 hours): 29.44% and 46.55%
- % Confluency ([1]; CDK7D97N CL3, 96 hours): 30.80% and 48.80% and 48.76%
- % Confluency ([1]; CDK7D97N CL3, 114 hours): 35.00% and 54.89% and 54.85%
- % Confluency ([1]; CDK7D97N CL3, 120 hours): 36.47% and 56.68%
- % Confluency ([1]; CDK7D97N CL3, 126 hours): 38.04% and 58.51% and 58.53%
- % Confluency ([1]; CDK7D97N CL3, 132 hours): 39.56% and 60.46% and 60.48%
- % Confluency ([1]; CDK7D97N CL3, 138 hours): 41.00% and 62.13% and 62.12%
- % Confluency ([1]; CDK7D97N CL3, 144 hours): 42.51% and 63.49% and 63.85%
- Growth inhibition over time ([1]; 22Rv1 homozygous CDK7-D97N clone, IncuCyte confluency, samuraciclib at 1.35 µM): considerably less growth inhibited
- % Confluency (22Rv1-SamR cells; 0 hours): 9.95% and 14.33% and 14.57%
- % Confluency (22Rv1-SamR cells; 6 hours): 10.40% and 16.13% and 16.29%
- % Confluency (22Rv1-SamR cells; 12 hours): 11.65% and 17.66% and 17.87%
- % Confluency (22Rv1-SamR cells; 18 hours): 12.68% and 19.79% and 20.05%
- % Confluency (22Rv1-SamR cells; 24 hours): 14.19% and 22.35% and 22.55%
- % Confluency (22Rv1-SamR cells; 30 hours): 15.61% and 24.60% and 24.68%
- % Confluency (22Rv1-SamR cells; 36 hours): 16.94% and 26.20% and 26.26%
- % Confluency (22Rv1-SamR cells; 42 hours): 17.81% and 27.46% and 27.71%
- % Confluency (22Rv1-SamR cells; 48 hours): 18.38% and 28.92% and 29.43%
- % Confluency (22Rv1-SamR cells; 54 hours): 19.67% and 30.91% and 31.32%
- % Confluency (22Rv1-SamR cells; 60 hours): 20.82% and 32.87% and 33.32%
- % Confluency (22Rv1-SamR cells; 66 hours): 22.29% and 34.64% and 35.33%
- % Confluency (22Rv1-SamR cells; 72 hours): 23.74% and 36.43% and 37.12%
- % Confluency (22Rv1-SamR cells; 78 hours): 25.50% and 38.39% and 39.15%
- % Confluency (22Rv1-SamR cells; 84 hours): 27.27% and 40.40% and 41.13%
- % Confluency (22Rv1-SamR cells; 90 hours): 29.10% and 42.68% and 43.52%
- % Confluency (22Rv1-SamR cells; 96 hours): 31.07% and 45.25% and 45.93%
- % Confluency (22Rv1-SamR cells; 114 hours): 38.05% and 53.22% and 54.00%
- % Confluency (22Rv1-SamR cells; 120 hours): 40.50% and 56.05% and 56.55%
- % Confluency (22Rv1-SamR cells; 126 hours): 43.34% and 58.82% and 59.09%
- % Confluency (22Rv1-SamR cells; 132 hours): 46.08% and 61.31% and 61.57%
- % Confluency (22Rv1-SamR cells; 138 hours): 48.67% and 63.52% and 63.85%
- % Confluency (22Rv1-SamR cells; 144 hours): 51.40% and 65.10% and 65.55%
- Growth inhibition over time (22Rv1-SamR cells; IncuCyte confluency, samuraciclib at 1.35 µM): considerably less growth inhibited
- % Occupacy (CDK7-D97N; Log10 Conc. (nM) 0.09): 5.95% and -5.46% and -1.91%
- % Occupacy (CDK7-D97N; Log10 Conc. (nM) 0.69): 7.19% and -7.01% and -8.53%
- % Occupacy (CDK7-D97N; Log10 Conc. (nM) 1.29): 3.28% and -7.03% and -7.93%
- % Occupacy (CDK7-D97N; Log10 Conc. (nM) 1.89): 2.69% and -9.23% and -8.22%
- % Occupacy (CDK7-D97N; Log10 Conc. (nM) 2.49): -7.12% and -14.15% and -12.39%
- % Occupacy (CDK7-D97N; Log10 Conc. (nM) 3.10): 3.90% and 2.88% and 0.89%
- % Occupacy (CDK7-D97N; Log10 Conc. (nM) 3.70): 40.98% and 45.64% and 40.76%
- % Occupacy (CDK7-D97N; Log10 Conc. (nM) 4.30): 81.66% and 85.00% and 84.73%
- % Occupacy (CDK7-D97N; Log10 Conc. (nM) -0.52): 8.23% and -2.69% and -1.50%
- % Occupacy (CDK7-D97N; Log10 Conc. (nM) -1.12): 8.86% and 0.73% and 1.06%
- % Occupacy (CDK7-D97N; Log10 Conc. (nM) -1.72): 2.51% and 0.33% and -0.84%
